The target in the experiment is LRRK2 G2019S (Homo sapiens, UniProt Q5S007, G2019S). In words: LRRK2 G2019S Km ATP LanthaScreen assay. The class given is biochemical. As to conditions: read-out: LRRK2 pIC50 (converted). For orientation: In TR-FRET formats the signal depends on donor and acceptor labels being close together.
LRRK2 G2019S, sequence (Q5S007 whole entry G2019S): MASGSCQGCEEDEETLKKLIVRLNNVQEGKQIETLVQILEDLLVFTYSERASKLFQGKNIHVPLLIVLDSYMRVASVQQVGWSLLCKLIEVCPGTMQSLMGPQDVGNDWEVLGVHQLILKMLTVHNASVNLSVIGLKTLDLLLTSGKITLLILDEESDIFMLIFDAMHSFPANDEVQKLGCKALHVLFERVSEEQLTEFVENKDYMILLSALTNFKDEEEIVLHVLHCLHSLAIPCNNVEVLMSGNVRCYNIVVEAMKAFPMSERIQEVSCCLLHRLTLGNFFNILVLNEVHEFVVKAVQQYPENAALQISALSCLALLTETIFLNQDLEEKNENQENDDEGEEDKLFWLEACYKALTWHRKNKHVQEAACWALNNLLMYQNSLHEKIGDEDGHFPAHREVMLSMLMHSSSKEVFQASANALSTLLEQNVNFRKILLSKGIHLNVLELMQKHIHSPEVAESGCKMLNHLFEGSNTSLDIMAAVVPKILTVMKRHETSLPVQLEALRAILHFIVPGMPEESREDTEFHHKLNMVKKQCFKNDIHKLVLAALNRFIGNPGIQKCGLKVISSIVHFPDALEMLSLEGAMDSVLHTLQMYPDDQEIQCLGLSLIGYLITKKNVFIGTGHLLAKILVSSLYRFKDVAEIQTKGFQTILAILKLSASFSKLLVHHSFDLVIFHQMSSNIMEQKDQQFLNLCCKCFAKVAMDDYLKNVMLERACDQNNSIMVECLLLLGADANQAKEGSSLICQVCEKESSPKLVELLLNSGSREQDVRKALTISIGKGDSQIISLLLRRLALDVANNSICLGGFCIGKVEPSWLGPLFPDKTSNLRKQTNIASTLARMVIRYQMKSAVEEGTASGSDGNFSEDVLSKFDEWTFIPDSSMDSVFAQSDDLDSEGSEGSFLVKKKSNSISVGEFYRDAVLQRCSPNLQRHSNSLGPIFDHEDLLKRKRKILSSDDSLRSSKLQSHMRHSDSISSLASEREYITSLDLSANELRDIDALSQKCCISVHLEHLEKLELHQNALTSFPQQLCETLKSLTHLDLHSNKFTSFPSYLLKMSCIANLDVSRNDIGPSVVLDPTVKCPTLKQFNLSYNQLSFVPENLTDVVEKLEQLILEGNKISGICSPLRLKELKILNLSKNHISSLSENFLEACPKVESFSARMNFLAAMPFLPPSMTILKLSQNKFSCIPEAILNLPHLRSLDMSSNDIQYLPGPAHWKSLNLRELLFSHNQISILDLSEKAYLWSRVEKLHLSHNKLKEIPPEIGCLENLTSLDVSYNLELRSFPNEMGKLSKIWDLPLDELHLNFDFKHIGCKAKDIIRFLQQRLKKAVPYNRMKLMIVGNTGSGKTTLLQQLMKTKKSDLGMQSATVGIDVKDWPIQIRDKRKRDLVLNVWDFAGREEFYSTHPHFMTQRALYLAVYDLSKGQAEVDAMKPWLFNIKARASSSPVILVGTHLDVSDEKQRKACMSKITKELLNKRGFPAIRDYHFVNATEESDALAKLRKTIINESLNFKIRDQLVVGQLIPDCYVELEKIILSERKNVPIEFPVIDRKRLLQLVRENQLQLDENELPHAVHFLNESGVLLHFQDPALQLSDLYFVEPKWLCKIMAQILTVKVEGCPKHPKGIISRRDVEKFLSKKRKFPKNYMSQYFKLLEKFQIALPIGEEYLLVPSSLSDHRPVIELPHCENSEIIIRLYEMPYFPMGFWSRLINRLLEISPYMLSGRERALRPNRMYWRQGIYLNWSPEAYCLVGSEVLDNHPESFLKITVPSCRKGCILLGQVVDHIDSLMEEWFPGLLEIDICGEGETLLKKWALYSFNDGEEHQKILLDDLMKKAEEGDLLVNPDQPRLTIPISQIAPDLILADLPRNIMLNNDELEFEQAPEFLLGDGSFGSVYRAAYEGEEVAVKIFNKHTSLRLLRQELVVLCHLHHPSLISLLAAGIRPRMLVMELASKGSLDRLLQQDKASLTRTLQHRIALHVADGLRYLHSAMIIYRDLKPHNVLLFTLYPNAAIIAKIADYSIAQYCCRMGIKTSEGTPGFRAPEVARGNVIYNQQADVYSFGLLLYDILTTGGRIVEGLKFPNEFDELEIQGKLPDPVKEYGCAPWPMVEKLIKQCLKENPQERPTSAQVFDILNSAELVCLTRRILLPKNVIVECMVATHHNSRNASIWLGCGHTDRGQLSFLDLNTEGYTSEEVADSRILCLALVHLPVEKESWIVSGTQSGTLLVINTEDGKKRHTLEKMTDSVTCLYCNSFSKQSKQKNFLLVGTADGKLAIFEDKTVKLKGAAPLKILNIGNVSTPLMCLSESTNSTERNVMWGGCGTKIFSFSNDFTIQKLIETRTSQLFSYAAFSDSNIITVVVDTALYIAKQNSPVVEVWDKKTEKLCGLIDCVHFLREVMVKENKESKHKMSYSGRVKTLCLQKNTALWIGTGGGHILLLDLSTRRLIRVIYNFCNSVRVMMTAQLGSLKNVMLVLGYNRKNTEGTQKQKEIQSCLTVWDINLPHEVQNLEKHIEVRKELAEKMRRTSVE

Take `CC1(N2CCC(c3cc4cc(NC(=O)C5C6CCCOC65)ncc4cc3Cl)CC2)COCC1O` (single isomer, unassigned) [Ex-4.11, N-(7-chloro-6-(1-(4-hydroxy-3-methyltetrahydrofuran-3-yl)piperidin-4-yl)isoquinolin-3-yl)-2-oxabicyclo[4.1.0]heptane-7-carboxamide]: the IC50 is 0.363 nM. In the case of `CCC1C(C(=O)Nc2cc3cc(C(C)COC)c(Cl)cc3cn2)C1c1cnn(C)c1` (single isomer, unassigned) [Ex-9.13, N-(7-chloro-6-(1-methoxypropan-2-yl)isoquinolin-3-yl)-2-ethyl-3-(1-methyl-1H-pyrazol-4-yl)cyclopropane-1-carboxamide] it was 6.92 nM. In the case of `CC1(N2CCC(c3cc4cc(NC(=O)C5CC56CCOCC6)ncc4cc3Cl)C(F)C2)COCC1O` (single isomer, unassigned) [Ex-14.4, N-(7-chloro-6-(3-fluoro-1-(4-hydroxy-3-methyltetrahydrofuran-3-yl)piperidin-4-yl)isoquinolin-3-yl)-6-oxaspiro[2.5]octane-1-carboxamide] it was 0.186 nM; in that of `CCC1C(C(=O)Nc2cc3cc(C4CCN(C5(C)COCC5F)CC4)c(C)cc3cn2)C1c1cnn(C)c1` (single isomer, unassigned) [Ex-15.15, 2-ethyl-N-(6-(1-(4-fluoro-3-methyltetrahydrofuran-3-yl)piperidin-4-yl)-7-methylisoquinolin-3-yl)-3-(1-methyl-1H-pyrazol-4-yl)cyclopropane-1-carboxamide], 58.9 nM; in that of `CC(C)(O)C1CC(C(=O)Nc2cc3cc(C4CCN(C5(C)COCC5O)CC4)c(Cl)cc3cn2)C1` (stereo not shown) [Ex-2.14], 0.186 nM.

Turning to `CC1(N2CCC(c3cc4cc(NC(=O)C5CC5C5CCOCC5)ncc4cc3Cl)CC2)COCC1F` (stereo not shown) [Ex-2.92], the IC50 was 0.0813 nM. Next, `CC1(N2CCC(c3cc4cc(NC(=O)C5CC5C5CCCO5)ncc4cc3Cl)CC2)COCC1O` (single isomer, unassigned) [Ex-4.69, N-(7-chloro-6-(1-(4-hydroxy-3-methyltetrahydrofuran-3-yl)piperidin-4-yl)isoquinolin-3-yl)-2-(tetrahydrofuran-2-yl)cyclopropane-1-carboxamide]: 0.0813 nM; `N#CC1(c2ccc3cnc(NC(=O)C4CCC4)cc3c2)CC12CC2` (single isomer, unassigned) [Ex-1.15, (R or S)-N-(6-(1-cyanospiro[2.2]pentan-1-yl)isoquinolin-3-yl)cyclobutanecarboxamide]: 3.24 nM. Next, `CC1(N2CCC(c3cc4cc(NC(=O)C5CC56CCC6)ncc4cc3Cl)CC2)COCC1O` (single isomer, unassigned) [Ex-4.7, N-(7-chloro-6-(1-(4-hydroxy-3-methyltetrahydrofuran-3-yl)piperidin-4-yl)isoquinolin-3-yl)spiro[2.3]hexane-1-carboxamide]: 0.0813 nM. On to `CC1(N2CCC(c3cc4cc(NC(=O)CC5CCOCC5)ncc4cc3Cl)CC2)COCC1O` (single isomer, unassigned) [Ex-1.39, N-(7-chloro-6-(1-((3R,4R or 3S,4S)-4-hydroxy-3-methyltetrahydrofuran-3-yl)piperidin-4-yl)isoquinolin-3-yl)-2-(tetrahydro-2H-pyran-4-yl)acetamide], for which the IC50 is 0.398 nM. In the case of `O=C(Nc1cc2cc(C3CCN(C4COC4)CC3)c(Cl)cc2cn1)C1CC(OC(F)F)C1` (single isomer, unassigned) [Ex-2.4] it was 14.1 nM; in that of `CC1(N2CCC(c3cc4cc(NC(=O)c5cnn(C6CC6)c5Cl)ncc4cc3Cl)CC2)COCC1F` (single isomer, unassigned) [Ex-1.51, 5-chloro-N-(7-chloro-6-(1-((3R,4R or 3S,4S)-4-fluoro-3-methyltetrahydrofuran-3-yl)piperidin-4-yl)isoquinolin-3-yl)-1-cyclopropyl-1H-pyrazole-4-carboxamide], 0.112 nM; in that of `CC(C)(O)C1CC1C(=O)Nc1cc2cc(C3CCN(C4(C)COCC4O)CC3)c(Cl)cc2cn1` (stereo not shown) [Ex-2.21], 0.0813 nM.

In the case of `O=C(Nc1cc2cc(C3CCN(C4CS(=O)(=O)C4)CC3)c(Cl)cc2cn1)C1CC1` [Ex-13.5], the IC50 is 4.17 nM. As to `CCC(=O)N1CCC(C(C)C(=O)Nc2cc3cc(C4(C#N)CC45CC5)ccc3cn2)CC1` (stereo not shown) [Ex-2.113], the IC50 was 28.2 nM. For `Cc1cc2cnc(NC(=O)C3CCOC(C)(C)C3)cc2cc1C1CCN(C2(C)COCC2O)CC1` (stereo not shown) [Ex-2.49], the IC50 is 0.513 nM. Next, `N#CC1(c2cc3cc(NC(=O)C4CC4c4ccccn4)ncc3cc2F)CC12CC2` (single isomer, unassigned) [Ex-18.13, (1R,2R or 1S,2S)-N-(6-((R or S)-1-cyanospiro[2.2]pentan-1-yl)-7-fluoroisoquinolin-3-yl)-2-(pyridin-2-yl)cyclopropane-1-carboxamide]: 7.41 nM; `C[C@@]1(N2CC[C@@H](c3cc4cc(NC(=O)[C@@H]5CC56CC6)ncc4cc3Cl)[C@H](F)C2)COC[C@@H]1O` [Ex-23.2, (R)-N-(7-chloro-6-((3S,4S)-3-fluoro-1-((3R,4R)-4-hydroxy-3-methyltetrahydrofuran-3-yl)piperidin-4-yl)isoquinolin-3-yl)spiro[2.2]pentane-1-carboxamide]: 0.0813 nM; `CC1C(C(=O)Nc2cc3cc(C4CCN(C5(C)COCC5O)CC4)c(Cl)cc3cn2)C12CCOCC2` (single isomer, unassigned) [Ex-10.5, N-(7-chloro-6-(1-(4-hydroxy-3-methyltetrahydrofuran-3-yl)piperidin-4-yl)isoquinolin-3-yl)-2-methyl-6-oxaspiro[2.5]octane-1-carboxamide]: 61.7 nM. Consider `CC1OCCC1N1CCC(c2cc3cc(NC(=O)C4CC4)ncc3cc2Cl)CC1` (single isomer, unassigned) [Ex-9.10, N-(7-chloro-6-(1-(2-methyltetrahydrofuran-3-yl)piperidin-4-yl)isoquinolin-3-yl)cyclopropanecarboxamide], for which the IC50 was 38.9 nM.

As to `O=C(Nc1cc2cc(C3CCN(C4COC4)CC3)c(Cl)cc2cn1)C1CC(OC(F)F)C1` (single isomer, unassigned) [Ex-2.3], the IC50 is 5.62 nM. Next, `N#CC1(c2ccc3cnc(NC(=O)[C@@H]4C[C@@H](O)[C@H](F)C4)cc3c2)CC12CC2` (single isomer, unassigned) [Ex-1.29, (1R,3R,4R)-N-(6-((R or S)-1-cyanospiro[2.2]pentan-1-yl)isoquinolin-3-yl)-3-fluoro-4-hydroxycyclopentane-1-carboxamide]: 20.4 nM; `Cn1cc(C2CC2C(=O)Nc2cc3cc(C4CCC(N5CC(F)C5)CC4)c(Cl)cc3cn2)cn1` (single isomer, unassigned) [Ex-5.7, N-(7-cchloro-6-(4-(3-fluoroazetidin-1-yl)cyclohexyl)isoquinolin-3-yl)-2-(1-methyl-1H-pyrazol-4-yl)cyclopropane-1-carboxamide]: 1.91 nM. In the case of `O=C(Nc1cc2cc(C3CCC(N4CC(F)(F)C4)CC3)c(Cl)cc2cn1)C1CC1c1ccccn1` (single isomer, unassigned) [Ex-5.3, N-(7-chloro-6-(4-(3,3-difluoroazetidin-1-yl)cyclohexyl)isoquinolin-3-yl)-2-(pyridin-2-yl)cyclopropane-1-carboxamide] it was 110 nM; in that of `O=C(Nc1cc2cc(C3CCN(C4COCC4O)CC3)c(Cl)cc2cn1)C1CC12CCOCC2` (single isomer, unassigned) [Ex-4.3, N-(7-chloro-6-(1-(4-hydroxytetrahydrofuran-3-yl)piperidin-4-yl)isoquinolin-3-yl)-6-oxaspiro[2.5]octane-1-carboxamide], 18.2 nM. In the case of `N#CC1(c2ccc3cnc(NC(=O)C4CC4c4ccncc4)cc3c2)CC12CC2` (stereo not shown) [Ex-2.41] it was 1.86 nM; in that of `O=C(Nc1cc2cc(C3CCN(C4COC4)CC3)c(Cl)cc2cn1)[C@H]1C[C@@H]1F` (single isomer, unassigned) [Ex-1.7, (1R,3S or 1S,3R)-N-(7-chloro-6-(1-(oxetan-3-yl)piperidin-4-yl)isoquinolin-3-yl)-2-fluorocyclopropane-1-carboxamide], 1.12 nM; in that of `CC1(N2CCC(c3cc4cc(NC(=O)C5CC56CC6)ncc4cc3Cl)CC2)COCC1O` (single isomer, unassigned) [Ex-4.5, N-(7-chloro-6-(1-(4-hydroxy-3-methyltetrahydrofuran-3-yl)piperidin-4-yl)isoquinolin-3-yl)spiro[2.2]pentane-1-carboxamide], 0.0813 nM. As to `CC1(C)CC(C(=O)Nc2cc3cc(C4CCN(C5(C)COCC5O)CC4)c(Cl)cc3cn2)CO1` (stereo not shown) [Ex-2.29], the IC50 is 0.234 nM.

Take `O=C(Nc1cc2cc(C3CCN(C4COCC4O)CC3)c(Cl)cc2cn1)C1CC12CCOCC2` (single isomer, unassigned) [Ex-4.4, N-(7-chloro-6-(1-(4-hydroxytetrahydrofuran-3-yl)piperidin-4-yl)isoquinolin-3-yl)-6-oxaspiro[2.5]octane-1-carboxamide]: the IC50 is 117 nM. Next, `Cc1cc2cnc(NC(=O)C3CC3C(C)(C)F)cc2cc1C1CCN(C2(C)COCC2O)CC1` (single isomer, unassigned) [Ex-15.6, 2-(2-fluoropropan-2-yl)-N-(6-(1-(4-hydroxy-3-methyltetrahydrofuran-3-yl)piperidin-4-yl)-7-methylisoquinolin-3-yl)cyclopropane-1-carboxamide]: 0.501 nM; `C[C@H]1CC(F)(F)CC[C@H]1C(=O)Nc1cc2cc(C3CCN(C4COC4)CC3)c(Cl)cc2cn1` [Ex-1.11, (1R,2S)-N-(7-chloro-6-(1-(oxetan-3-yl)piperidin-4-yl)isoquinolin-3-yl)-4,4-difluoro-2-methylcyclohexane-1-carboxamide]: 39.8 nM. In the case of `N#CC1(c2ccc3cnc(NC(=O)C4CC45CCOCC5)cc3c2)CC12CC2` (single isomer, unassigned) [Ex-18.12, (R or S)-N-(6-((R or S)-1-cyanospiro[2.2]pentan-1-yl)isoquinolin-3-yl)-6-oxaspiro[2.5]octane-1-carboxamide] it was 1.62 nM. In the case of `Cc1cc2cnc(NC(=O)C3CC3c3cnn(C)c3)cc2cc1C1CC12CC2` (single isomer, unassigned) [Ex-16.4, 2-(1-methyl-1H-pyrazol-4-yl)-N-(7-methyl-6-(spiro[2.2]pentan-1-yl)isoquinolin-3-yl)cyclopropane-1-carboxamide] it was 28.8 nM.

The record behind these values is patent US20240398784A1, “C-LINKED ISOQUINOLINE AMIDES AS LRRK2 INHIBITORS, PHARMACEUTICAL COMPOSITIONS, AND USES THEREOF” (Merck Sharp & Dohme LLC, priority 2021, published 2024).
